The record followed here is ChEMBL document CHEMBL5038568, “Bioactive Cyclization Optimizes the Affinity of a Proprotein Convertase Subtilisin/Kexin Type 9 (PCSK9) Peptide Inhibitor” (J Med Chem, 2021).

pIC50, pKd: −log10 of the molar value. Numbered stars: 1 amine (or outer) side, 2 acyl side, 3 side chain; on linkers, the order of the positions; unused ones are H or OH. Bridge positions count the residues as written; N and C are the ends. Peptide text beside a SMILES is read from it. X1 = N[C@@H](CS[*:1])C(=O)NC(=O)[C@H](CO)N[*:2]

Series [1] deals with T1, Proprotein convertase subtilisin/kexin type 9 (Homo sapiens, UniProt Q8NBP7). Nature of the series: Binding affinity to full length C-terminal Avi/His6-tagged human PCSK9 expressed in Expi293 cells assessed as dissociation rate constant (Koff) by surface plasmon resonance assay.
Series [2] addresses T1, Proprotein convertase subtilisin/kexin type 9. Nature of the series: Binding affinity to full length C-terminal Avi/His6-tagged human PCSK9 expressed in Expi293 cells assessed as equilibrium dissociation constant by surface plasmon resonance assay. On the technique in general: Surface plasmon resonance follows binding to a sensor surface in real time, without labels.
For series [3] the target is unchanged. Nature of the series: Binding affinity to full length C-terminal Avi/His6-tagged human PCSK9 expressed in Expi293 cells assessed as change in enthalpy by isothermal titration calorimetric analysis.
The target is the same in series [4]. As to the kind of experiment: Inhibition of tEGF-A[HA] binding to biotinylated human PCSK9 incubated for 2 hrs by ELISA based competitive binding assay. (In general: In an ELISA, binding on a coated surface is turned into a signal by an enzyme label.)
Series [5] relates to HepG2. Nature of the series: Cytotoxicity against human HepG2 cells assessed as reduction in cell viability at 10 uM incubated for 48 hrs by MTT assay. The note with it: hepg2, 48 h. The format is toxicity, cell-based. In general terms: Tetrazolium dyes change colour on reduction, which living cells bring about.
The target in series [6] is T1, Proprotein convertase subtilisin/kexin type 9. Nature of the series: Inhibition of PCSK9 in human HepG2 cells assessed as restoration of surface LDLR level at 50 nM incubated for 2 hrs by Western blot analysis (Rvb= 37.5 +/- 13.9%). Further details: scale not given: the % may be the effect or the level left. In kind it is cell-based.
Series [7] has the same target. As to the kind of experiment: Binding affinity to full length C-terminal Avi/His6-tagged human PCSK9 expressed in Expi293 cells assessed as change in entropy by isothermal titration calorimetric analysis.
The target is the same in series [8]. Nature of the series: Inhibition of PCSK9 in human HepG2 cells assessed as restoration of PCSK9-induced reduction in fluorescent LDL uptake at 50 nM incubated for 2 hrs by fluorescence plate reader analysis (Rvb= 46.1 +/- 5.6%). Further details: scale not given: the % may be the effect or the level left. In kind it is cell-based.
For series [9] the target is unchanged. Nature of the series: Binding affinity to human PCSK9 assessed as dissociation constant.

One may read the pKd as −log10 of the Kd, conventionally taken in molar units. The pIC50 is the negative decadic logarithm of the IC50, by convention in mol/L. On to `CC(C)C[C@@H]1NC(=O)[C@H](Cc2ccc(O)cc2)NC(=O)[C@H](CCC(=O)O)NC(=O)[C@H](CCC(=O)O)NC(=O)[C@H](Cc2c[nH]c3ccccc23)NC(=O)[C@H](CO)NC(=O)[C@H]([C@@H](C)O)NC(=O)[C@H](Cc2ccccc2)NC(=O)[C@H](C(C)C)NC(=O)[C@H]([C@@H](C)O)NC(=O)[C@@H](N)CSSC[C@H](N)C(=O)NC(=O)[C@H](CO)NC(=O)[C@H](CC(N)=O)NC(=O)[C@H](CCCNC(=N)N)NC(=O)[C@@H]2CCCN2C(=O)[C@H](Cc2cnc[nH]2)NC(=O)[C@H](CC(C)C)NC(=O)[C@H](CC(N)=O)NC(=O)[C@H](CC(N)=O)NC(=O)[C@H](Cc2c[nH]c3ccccc23)NC(=O)[C@H](CC(=O)O)NC1=O` (H-CTVFTSWEEYLDWNNLHPRN; linker 1-C via X1), for which, in series [1], the K was determined as 0.02 s⁻¹. For the same compound, in [2], the pKd was 6.01. Besides, the deltaH in series [3] was -37.3 kcal/mol. Also, in series [4], the negative logarithm of the IC50 (pIC50) was 5.90. The Activity entry in [5] is “Non-Toxic”; in series [6], 112%; in series [8] it was 97.1%. For the same compound, the deltaS in series [7] is -89.5 cal/mol/K.

For `CC(C)C[C@H](NC(=O)[C@H](Cc1ccc(O)cc1)NC(=O)[C@H](CCC(=O)O)NC(=O)[C@H](CCC(=O)O)NC(=O)[C@H](Cc1c[nH]c2ccccc12)NC(=O)[C@H](CO)NC(=O)[C@@H](NC(=O)[C@H](Cc1ccccc1)NC(=O)[C@@H](NC(=O)[C@@H](N)[C@@H](C)O)C(C)C)[C@@H](C)O)C(=O)N[C@@H](CC(=O)O)C(=O)N[C@@H](Cc1c[nH]c2ccccc12)C(=O)N[C@H](C(=O)O)C(C)C`, the pKd in series [9] is 6.18.
